Assay results taken from patent US10035791B2, “Bicyclic compound and pharmaceutical composition thereof for treating stroke and use thereof” (China Medical University, priority 2016, dated 2018).

Assays:
HIF-1α = HIF-1α expressions in the brains of the ischemic rats, Western blot; format: in vivo, Sprague-Dawley (SD) rats
Excerpt: (§1) The ischemic rats are induced by an ischemia-reperfusion model to simulate transient focal cerebral ischemia in rats. Test animals are male Sprague-Dawley (SD) rats weighing 250-300 g. The rats are anesthetized with chloral hydrate (0.4 g/kg IP) and subjected to cerebral ischemia. The ischemia-reperfusion model is induced by ligations of bilateral common carotid arteries (CCAs) and a right middle cerebral artery (MCA). The bilateral CCAs are clamped with non-traumatic arterial clips, and the right MCA is ligated with an 10-0 nylon suture. After 90 minutes ischemia, the suture on the MCA and the arterial clips on CCAs are removed to allow reperfusion. Core body temperature is monitored with a thermistor probe (Hewlett-Packard Model 21090A probe, Hewlett-Packard Company, Andover, Mass.), and maintained at 37° C. with a heating pad during anesthesia. After recovery from anesthesia, rat body temperature is maintained at 37° C. with a heat lamp.
The ischemia-reperfusion model is established as described above. The ischemic rats are injected intraperitonealy with different dosages of the Compound 1 (0.1 mg/kg, 1 mg/kg and 10 mg/kg) at 4 hours after MCA ligation for three consecutive days. Sham rats undergo same protocol with the exception of the ligation of the bilateral CCAs and the right MCA. The rats only injected a vehicle are used as the control. The ischemic rats are decapitated at 4 hours, 16 hours, 24 hours, 36 hours and 72 hours after the Compound 1 injection. The Bmi-1 expressions and the HIF-1α expressions of the ischemic rats are detected by the Western blot analysis.
The ischemic rats are further treated with 100 mg/kg of the 2-ME2 or stereotaxic injected with the LV-Bmi-1-sh or the LV-control-sh to inhibit the HIF-1α expressions and the Bmi-1 expressions, and then the ischemic rats are treated with 1 mg/kg of the Compound 1. The effect of the administration of the Compound 1 on the Bmi-1 expressions in the brains of the ischemic rats which are reduced the Bmi-1 expressions or the HIF-1α expressions are detected by the Western blot analysis.

ischemic rats = experiment: Locomotor activity test; format: in vivo, Sprague-Dawley (SD) rats; conditions: 1 mg/kg, vs control group, FIGS. 19B to 19D
Excerpt: as §1, with “After recovery from anesthesia, rat body temperature is maintained at 37° C. with a heat lamp.” left out
The locomotor activity test is measured for about 2 hours using VersaMax Animal Activity Monitoring System (Accuscan Instruments), which contains 16 horizontal infrared sensors and 8 vertical infrared sensors. The vertical sensors are situated 10 cm above the chamber floor and the locomotor activity is quantified by a number of a beam broken by the rat's movement in the chamber. Three vertical-movement parameters are measured: (i) vertical activity (ii) vertical time (iii) number of vertical movements by the manufacturer's instruction.

Bmi-1 = Bmi-1 expressions in the PCCs with hypoxic treatment, Western blot; format: cell-based, C57BL/6 mice
Description: Test cells are primary cortical cultures (PCCs) in this example. The PCCs are prepared from cerebral cortexes of gestation day 17 embryos from C57BL/6 mice as described previously (Cell Death Differ 2008; 15: 143-151). The PCCs are maintained under serum-free conditions in neurobasal medium (Invitrogen), supplemented with B-27 supplement (2%; invitrogen), glutamine (0.5 mM; Sigma Aldrich), glutamate ([…]; Sigma Aldrich), penicillin (100 U/ml) and streptomycin ([…]; Invitrogen). At 4 days in vitro, half of the medium is removed and replaced with fresh medium without glutamate. The cultures are maintained in a humidified incubator at 37° C. with 5% CO2. At 7 days in vitro, the PCCs are used for experimentation.
The relationship between the HIF-1α activation and the Bmi-1 expressions is further analyzed by the Western blot analysis in this example. […] One group of the PCCs is transfected with LV-Bmi-1 to transient express the Bmi-1. Another group of the PCCs is treated with 1 μM of 2-ME2 for 16 hours and then transfected with the LV-Bmi-1. The other group of the PCCs is transfected with LV-GFP as the control group. In FIG. 6B, the PCCs transfected with the LV-Bmi-1 overexpress the Bmi-1. However, the overexpressions of the Bmi-1 are not affected by the pretreatment of the PCCs with 2-ME2. […]

Row | SMILES | treatment time with the highest HIF-1α expression (HIF-1α; 1 mg/kg, 4 to 72 hours after injection, FIG. 13A) | HIF-1α expressions in the brains of the ischemic rats (HIF-1α; 0.1, 1, 10 mg/kg intraperitoneal, vs control and sham rats, FIGS. 13A, 13B) | dosage with the highest HIF-1α expression (HIF-1α; 0.1, 1, 10 mg/kg tested, 36 hours, FIG. 13B) | locomotor activity (vertical activity, vertical time, number of vertical movements) (ischemic rats) | overexpressions of the Bmi-1 in PCCs transfected with the LV-Bmi-1 (Bmi-1; 1 μM 2-ME2 for 16 hours before transfection, FIG. 6B) | Bmi-1 expressions of the PCCs (Bmi-1; 1 μM 2-ME2 for 16 hours, hypoxic treatment, FIG. 6C)
1 | COC(=O)C1=CO[C@@H](O)[C@@H]2C(COC(=O)[C@@H](N)Cc3ccccc3)=CC[C@H]12 [Compound 1] | 4 h | significantly increases | 1 mg/kg | significant improvement |  | 
2 | COc1cc2c(cc1O)CC[C@@H]1[C@@H]2CC[C@]2(C)[C@@H](O)CC[C@@H]12 [Compound 2-ME2, 2-Methoxyestradiol, reference compound] |  |  |  |  | not affected | reduced
